This passage reports IC50 and EC50 results from patent publication US10981932B2, “Macrocyclic indole derivatives” (Bayer Aktiengesellschaft, priority 2016, dated 2021).

Where a name gives a salt, the structure may show the parent alone. Read-outs that look alike come from different tables or passages of the source. Bounds are passed on as bounds.

One data set relates to A2780. As to the kind of experiment: Anti-proliferative effect (CellTiter-Glo, 72 h), A2780. Type of data set: cell-based. The note with it: A2780 cells, median, read-out: IC50 antiproliferation assay A2780 [M] (median). The essentials:
(§1)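 After seeding, one plate is read right away by CellTiter-Glo luminescence to fix time zero. The treated plates stay at 37 °C in humidified air for 72 h and are then measured with the same reagent and 10 min incubation.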
(ATP-based viability assays read luminescence as a measure of living cells.)

A further data set relates to MV-4-11. As to the kind of experiment: Anti-proliferative effect (CellTiter-Glo, 72 h), MV-4-11. Type of data set: cell-based. The note with it: MV-4-11 cells, median, read-out: IC50 antiproliferation assay MV-4-11 [M] (median). An outline of the steps:
as §1

Data set [1] concerns SUDHL10. Put plainly: Induction of caspase-3/7 activity (Caspase-Glo 3/7), SUDHL10. Type of data set: cell-based. To be noted: caspase-3/7 induction, SUDHL10 cells, 3 h treatment, median. An outline of the steps:
(§2)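 Apoptosis induction measured as caspase-3/7 activity (Caspase-Glo 3/7) in DLBCL lines after 3 h treatment at 37 °C; EC50 derived relative to the reference compound's maximal induction, with C0 fixed at 1.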

The test system of data set [2] is SUDHL5. As to the kind of experiment: Induction of caspase-3/7 activity (Caspase-Glo 3/7), SUDHL5. Type of data set: cell-based. To be noted: caspase-3/7 induction, SUDHL5 cells, 3 h treatment, median. An outline of the steps: as §2
For another data set, the target named is MCL-1 (Homo sapiens, UniProt Q07820). Put plainly: Protein-protein interaction assay MCL-1/Noxa BH3 peptide (MCL-1 assay), TR-FRET. The note with it: MBP-MCL-1 / Noxa BH3-derived peptide, median. Type of data set: binding. The essentials: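 Inhibition values were normalized between DMSO controls with all reagents and controls lacking MCL-1. The binding competition used 1 nM MBP-MCL-1 in pH 7 Tris buffer containing 50 mM KF and 100 mM NaCl, with a 10 min compound preincubation at 22 °C.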
Chain of MCL-1 (Q07820 whole entry): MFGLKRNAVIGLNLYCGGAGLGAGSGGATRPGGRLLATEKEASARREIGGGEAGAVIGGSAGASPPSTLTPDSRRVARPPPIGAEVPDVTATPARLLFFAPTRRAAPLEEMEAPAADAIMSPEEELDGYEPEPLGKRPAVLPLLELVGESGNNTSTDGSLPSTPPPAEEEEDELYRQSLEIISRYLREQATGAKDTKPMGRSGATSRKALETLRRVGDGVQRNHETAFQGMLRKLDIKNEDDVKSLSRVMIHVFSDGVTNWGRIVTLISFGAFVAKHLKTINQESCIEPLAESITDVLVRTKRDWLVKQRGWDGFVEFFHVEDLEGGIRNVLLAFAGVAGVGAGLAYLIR
A general note: TR-FRET usually uses a lanthanide donor and a delayed reading to cut background.

Data set [3] concerns SUDHL5. Put plainly: Induction of cytotoxicity (CellTiter-Glo, 5 h), SUDHL5.
Method: Therefore, cytotoxicity assays were run in parallel in SUDHL5 and SUDHL10 cells.
The different cell lines were plated in culture medium (RPMI 1640 [GIBCO #22400-089]supplemented with 10% Fetal Bovine Serum) at a density of 3.300 cells in 30 μl/well in a sterile, solid black, flat bottom, polystyrene, TC-treated 384-well microplate (Corning #3571) using Multidrop Combi Reagent Dispenser. As a control, medium without cells was also added to the plate. Cells were incubated in a humidified incubator at 37° C. overnight. On the next day, the cells were treated with compounds (stock solution, 10 mM in DMSO) using the HP D300 Digital Dispenser in a concentration range of 3.3×10e-5 M (33 μM) to 5×10e-9 M (5 nM) in a single-dot curve with at least 16 dilutions and a DMSO concentration of 0.33%. Rim wells were excluded. The cells were incubated for 5 h hours in a humidified incubator at 37° C. After this incubation, 30 μl of CellTiter-Glo@ Luminescent Cell Viability reagent (Promega, G7573) was added to each well using the Multidrop Combi Reagent Dispenser, followed by 15 min incubation on a shaker at room temperature. Finally, luminescence was read at 0.1 ms, with a gain of 3000 using the PHERAstar FS microplate reader (BMG Labtech).
The Bella DRC Master Sheet was used to calculate IC50s, with fixed CI=0 and C0=1.
In data set [4] the test system is SUDHL5. As to the kind of experiment: Anti-proliferative effect (CellTiter-Glo, 72 h), SUDHL5. Type of data set: cell-based. To be noted: SUDHL5 cells, antiproliferation, median, read-out: Antiproli SUDHL5 [M] (median). The essentials: as §1
Data set [5] relates to SUDHL10. Put plainly: Induction of cytotoxicity (CellTiter-Glo, 5 h), SUDHL10.
Setting [6] is: read-out: Cytotox SUDHL5 [M] (median), SUDHL5 cells, cytotoxicity induction, CellTiter-Glo, 5 h incubation, median.
Where [7] appears, read: read-out: Cytotox SUDHL10 [M] (median), SUDHL10 cells, cytotoxicity induction, CellTiter-Glo, 5 h incubation, median.
Where [8] appears, read: read-out: Cytotox SUDHL5 [M] (median), SUDHL5 cells, cytotoxicity induction, CellTiter-Glo, 5 h, median.
Setting [9] is: read-out: Cytotox SUDHL10 [M] (median), SUDHL10 cells, cytotoxicity induction, CellTiter-Glo, 5 h, median.
Setting [10] is: Homo sapiens, SU-DHL-5, 72 h, 72 h.
Setting [11] is: Homo sapiens, SU-DHL10, 5 h, read-out: Cytotox SUDHL10 [M] (median), SUDHL10 cells, cytotoxicity induction, CellTiter-Glo, 5 h, median.
Setting [12] is: Homo sapiens, SU-DHL-5, 5 h, read-out: Cytotox SUDHL5 [M] (median), SUDHL5 cells, cytotoxicity induction, CellTiter-Glo, 5 h, median.

For `COCCn1nc(C2CC2)c2c1COCCCCn1c(C(=O)O)c(CCCOc3cccc4c3CCCC4)c3cccc-2c31` (single isomer, unassigned; enantiomer 1) [Example 165, 3-Cyclopropyl-1-(2-methoxyethyl)-7-[3-(5,6,7,8-tetrahydronaphthalen-1-yloxy)propyl]-1,10,11,12,13,15-hexahydropyrazolo[4′,3′:9,10][1,6]oxazacycloundecino[8,7,6-hi]indole-8-carboxylic acid-N-ethylethanamine Salt (Enantiomer 1)], the IC50 stood at 2.15e-05 M in the data set on A2780 (Homo sapiens, A2780, 72 h); 8.15e-06 M in the data set with MV-4-11; 2.89 nM at MCL-1; 5.71e-06 M with SUDHL5 [3] (setting [6]); 1.13e-05 M with SUDHL5 [4] (Homo sapiens, SU-DHL-5, 72 h, 72 h incubation); 2.37e-05 M in the data set on SUDHL10 [5] (Homo sapiens, SU-DHL10, 5 h, read-out: Cytotox SUDHL10 [M] (median), SUDHL10 cells, cytotoxicity induction, CellTiter-Glo, 5 h incubation, median). The EC50 (in general, the concentration giving half of the maximal effect) turned out to be 19.1 µM in the data set on SUDHL10 [1] (Homo sapiens, SU-DHL10, 3 h) and 5.25 µM in the data set on SUDHL5 [2].
`CCc1c2c(nn1CCN1CCOCC1)COCCCCn1c(C(=O)O)c(CCCOc3cccc4ccccc34)c3ccc(C)c-2c31` (single isomer, unassigned; enantiomer 1) [Example 205, 3-ethyl-4-methyl-[2-(2-(morpholin-4-yl)ethyl]-7-[3-(naphthalen-1-yloxy)propyl]-2,10,11,12,13,15-hexahydropyrazolo[4′3′:9,10][1,6]oxazacycloundecino[8,7,6-hi]indole-8-carboxylic Acid (Enantiomer 1)]: the IC50 in the data set on A2780 was 1.03e-05 M; in the data set on MV-4-11, 2.83e-06 M; on MCL-1, 1.65 nM; with SUDHL5 [3] (setting [6]) it was 1.38e-06 M; with SUDHL5 [4] (72 h incubation), 2e-06 M; in the data set with SUDHL10 [5] (setting [7]), 2.92e-06 M. In addition, the 50% effective concentration (EC50) with SUDHL10 [1] came to 2.49 µM; with SUDHL5 [2] it was 1.33 µM.
For `Cc1c2c(nn1C)COCCCCn1c(C(=O)O)c(CCCOc3cccc4cc(F)ccc34)c3cccc-2c31` (single isomer, unassigned; enantiomer 1) [Example 303, (−)-7-{3-((6-fluoronaphthalen-1-yl)oxypropyl}-2,3-dimethyl-2,10,11,12,13,15-hexahydropyrazolo[4′,3′:9,10][1,6]oxazacycloundecino[8,7,6-hi]indole-8-carboxylic Acid (Enantiomer 1)], the IC50 is 2.4e-05 M in the data set with A2780; 2.61e-05 M in the data set with MV-4-11; 26.8 nM on MCL-1; more than 3.3e-05 M in the data set with SUDHL5 [3] (setting [8]); 6.97e-06 M with SUDHL5 [4] (72 h); more than 3.3e-05 M with SUDHL10 [5] (setting [9]). In addition, the EC50 in the data set on SUDHL10 [1] and with SUDHL5 [2] was more than 33 µM in each case.
As for `Cn1nc(COCc2ccc(C#N)cc2)c2c1COCCCCn1c(C(=O)O)c(CCCOc3cccc4ccccc34)c3cccc-2c31` (single isomer, unassigned; enantiomer 1) [Example 347, 3-({[(4-cyanobenzyl)oxy]methyl}-1-methyl-7-[3-(naphthalen-1-yloxy)propyl]-1,10,11,12,13,15-hexahydropyrazolo[4′,3′:9,101][1,6]oxazacycloundecino[8,7,6-hi]indole-8-carboxylic acid-N-ethylethanamine Salt (Enantiomer 1)], the IC50 in the data set on A2780 (Homo sapiens, A2780, 72 h) is 9.45e-06 M; with MV-4-11, 1.2e-05 M; against MCL-1, 343 nM; in the data set on SUDHL5 [3] (setting [8]), more than 3.3e-05 M; in the data set with SUDHL5 [4] (setting [10]) it was 4.2e-06 M; in the data set on SUDHL10 [5] (setting [11]), more than 3.3e-05 M. The 50% effective concentration (EC50) was more than 33 µM in the data set on SUDHL10 [1] (Homo sapiens, SU-DHL10, 3 h) and more than 33 µM in the data set with SUDHL5 [2].
As for `COc1ccc2c(CCCOc3cccc4ccccc34)c(C(=O)O)n3c2c1-c1c(nn(C)c1C)COCCCC3` (single isomer, unassigned; enantiomer 1) [Example 350, 4-methoxy-2,3-dimethyl-7-[3-(naphthalen-1-yloxy)propyl]-2,10,11,12,13,15-hexahydropyrazolo[4′,3′:9,10][1,6]oxazacycloundecino[8,7,6-hi]indole-8-carboxylic acid-N-ethylethanamine Salt (Enantiomer 1)], the IC50 with A2780 (Homo sapiens, A2780, 72 h) is more than 3.3e-05 M; in the data set on MV-4-11, 1.53e-05 M; against MCL-1, 56.3 nM; in the data set with SUDHL5 [3] (setting [12]) it was 2.07e-05 M; in the data set with SUDHL5 [4] (setting [10]) it was 1.38e-05 M; in the data set with SUDHL10 [5] (setting [11]), 3.11e-05 M. Moreover, the IC50 in the data set on SUDHL10 [5] (setting [9]) was more than 3.3e-05 M. Further, the EC50 is more than 33 µM with SUDHL10 [1] (Homo sapiens, SU-DHL10, 3 h); 24.3 µM in the data set on SUDHL5 [2] (Homo sapiens, SU-DHL-5, 3 h); more than 33 µM in the data set on SUDHL5 [2].
Regarding `COc1ccc2c(CCCOc3cccc4ccccc34)c(C(=O)O)n3c2c1-c1c(C)nn(C)c1COCCCC3` (single isomer, unassigned; enantiomer 1) [Example 352, 4-methoxy-1,3-dimethyl-7-[3-(naphthalen-1-yloxy)propyl]-1,10,11,12,13,15-hexahydropyrazolo[4′,3′:9,10][1,6]oxazacycloundecino[8,7,6-hi]indole-8-carboxylic Acid Ammonium Salt (Enantiomer 1)], the IC50 was more than 3.3e-05 M in the data set on A2780 (Homo sapiens, A2780, 72 h); 1.05e-05 M in the data set with MV-4-11; 45.4 nM on MCL-1; more than 3.3e-05 M with SUDHL5 [3] (setting [12]); 1.19e-05 M with SUDHL5 [4] (setting [10]); more than 3.3e-05 M in the data set on SUDHL10 [5] (setting [11]). The 50% effective concentration (EC50) in the data set with SUDHL10 [1] (Homo sapiens, SU-DHL10, 3 h) was more than 33 µM; with SUDHL5 [2] (Homo sapiens, SU-DHL-5, 3 h), more than 33 µM.
Take `Cc1ccc2c(CCCOc3cccc4ccccc34)c(C(=O)O)n3c2c1-c1c(C)nn(C)c1COCCC3` (single isomer, unassigned; enantiomer 2) [Example 026, (−)-9,11,12-trimethyl-1-[3-(naphthalen-1-yloxy)propyl]-5,6,8,9-tetrahydro-4H-pyrazolo[4′,3′:8,9][1,5]oxazecino[7,6,5-hi]indole-2-carboxylic acid-N-ethylethanamine Salt (Enantiomer 2)]: the IC50 in the data set on A2780 was 1.97e-05 M; in the data set on MV-4-11 (Homo sapiens, MV4-11, 72 h), 1.14e-05 M; against MCL-1 it was 23.4 nM; in the data set on SUDHL5 [3] (setting [6]), 2.41e-05 M; in the data set with SUDHL5 [4] (72 h incubation), 8.59e-06 M; in the data set with SUDHL10 [5] (setting [7]) it was 2.58e-05 M. Also, the EC50 in the data set on SUDHL10 [1] stood at 20.2 µM; in the data set on SUDHL5 [2], 23.8 µM.
`Cn1nc2c(c1CN1CCOCC1)-c1cccc3c(CCCOc4cccc5ccccc45)c(C(=O)O)n(c13)CCCCOC2` (single isomer, unassigned; enantiomer 2) [Example 080, 2-methyl-3-(morpholin-4-ylmethyl)-7-[3-(naphthalen-1-yloxy)propyl]-2,10,11,12,13,15-hexahydropyrazolo[4′3′:9,10][1,6]oxazacycloundecino[8,7,6-hi]indole-8-carboxylic acid-N-ethylethanamine Salt (Enantiomer 2)]: the IC50 is 2.41e-05 M with A2780; 1.21e-05 M with MV-4-11; 31.2 nM against MCL-1; more than 3.3e-05 M in the data set on SUDHL5 [3] (setting [6]); 1.56e-05 M with SUDHL5 [4] (72 h incubation); more than 3.3e-05 M in the data set with SUDHL10 [5] (setting [7]). Further, the half-maximal effective concentration (EC50) in the data set on SUDHL10 [1] and in the data set on SUDHL5 [2] was more than 33 µM throughout.
With `COCCn1nc(C2CC2)c2c1COCCCCn1c(C(=O)O)c(CCCOc3cccc4c3CCCC4)c3cccc-2c31` (single isomer, unassigned; enantiomer 2) [Example 166, 3-Cyclopropyl-1-(2-methoxyethyl)-7-[3-(5,6,7,8-tetrahydronaphthalen-1-yloxy)propyl]-1,10,11,12,13,15-hexahydropyrazolo[4′,3′:9,10][1,6]oxazacycloundecino[8,7,6-hi]indole-8-carboxylic acid-N-ethylethanamine Salt (Enantiomer 2)], the IC50 is 2.82e-05 M in the data set with A2780; 1.88e-05 M with MV-4-11; 41 nM at MCL-1; 2.81e-05 M in the data set on SUDHL5 [3] (setting [6]); 1.26e-05 M in the data set on SUDHL5 [4] (72 h incubation); more than 3.3e-05 M with SUDHL10 [5] (setting [7]). For the same molecule, the EC50 in the data set with SUDHL10 [1] is more than 33 µM; with SUDHL5 [2], 30.7 µM.
